{
  "source": "patent US10570177B2",
  "about": "“P3 peptidylic inhibitors for treating CAG-repeat RNA toxicity in polyglutamine diseases” (The Chinese University of Hong Kong, priority 2017, dated 2020)",
  "key": {"pre-rRNA": {"test_system": "pre-rRNA", "experiment": "Real-time PCR of pre-rRNA level in DsRedCAG100 flies", "format": "in vivo, Drosophila", "settings": "1 μM", "procedure": "Ribosomal RNA (rRNA) synthesis occurs within the nucleolus^15. It was previously shown that expanded CAG RNA induces nucleolar stress by preventing the nucleolar protein NCL from binding to the upstream control element of the rRNA promoter, leading to the downregulation of rRNA transcription^13. To investigate whether P3V8 suppressed neurotoxicity by alleviating expanded CAG RNA-induced nucleolar stress in vivo, the expression levels of pre-rRNA in were measured DsRedCAG100 flies treated with the peptide. […] This confirms that P3V8 subdued polyQ neurodegeneration in vivo by effective mitigation of the expanded CAG RNA-induced nucleolar stress.\n(§1) RNA was extracted from cells or ten 12 day-old adult fly heads by Trizol reagent (Life Technologies), and 1 μg of purified RNA was then used for reverse-transcription using the ImPromII™ Reverse Transcription System (Promega). Random hexamer (Roche) was used as primers in reverse transcription. Taqman gene expression assays were performed on an ABI 7500 Real-time PCR system and data were analyzed as previously described^13. The following probes were used: pre-45s rRNA (Assay ID: AILJIZM), pre-rRNA (Assay ID: AIMSG5U), Drosophila GAPDH (Assay ID: Dm01841186) and human actin (Assay ID: Hs99999903_m1). Each experiment was repeated at least 3 times."}, "pre-45s rRNA": {"test_system": "pre-45s rRNA", "experiment": "Real-time PCR of pre-45s rRNA level in EGFPCAG78 RNA-expressing HEK293 cells", "format": "cell-based, human", "settings": "with DeliverX", "procedure": "It was next investigated whether P3V8 could also mitigate expanded CAG RNA-induced toxicity in mammalian cells. […] To compare the inhibitory activity of P3WT and P3V8, the peptide transfection reagent DeliverX (DX) was used to deliver P3WT and P3V8 to EGFPCAG78 RNA-expressing HEK293 cells. […] To confirm that P3V8 inhibited expanded CAG RNA-mediated nucleolar stress, the levels of pre-45s rRNA were measured in EGFPCAG78 RNA-expressing cells with or without treatment of P3V8 (FIG. 3C). Overexpression of the expanded CAG RNA reduced the level of pre-45s rRNA to approximately 40% of the untransfected control.\nas §1"}, "MJDCAG78 RNA": {"target": "MJDCAG78 RNA", "experiment": "Isothermal titration calorimetry binding assay, expanded MJDCAG78 RNA", "settings": "ITC at 25° C.; 0.7 mM peptide titrated into 0.5 μM MJDCAG78 RNA; one binding site model; mean ± S.E.M.", "procedure": "(§2) Experiments were carried out using a MicroCal iTC200 isothermal titration calorimeter (GE Healthcare) at 25° C. Data were analyzed using the Origin® scientific plotting software version 7 (Microcal Software Inc.). All RNAs and peptides were dissolved in binding buffer (20 mM MOPS, pH 7.0; 300 mM NaCl) and 0.7 mM of peptide was titrated into 0.5 μM of RNA for each experiment. The concentration of RNA was estimated with appropriate extinction coefficients at 260 nm on a Nanodrop 2000 (Thermo Scientific). A reference power of 8 μcal/s was used with an initial 0.5 μl of injection of peptide followed by 2 μl for all subsequent titrations points with a 60 sec initial equilibrium delay and 150 sec pause between injections. The samples were stirred at a speed of 1000 rpm throughout the experiment. The thermal titration data were fitted to the ‘one binding site model’ to determine the dissociation constant (KD). Each experiment was repeated at least 3 times with consistent results obtained."}, "MJDCAA/G78 RNA": {"target": "MJDCAA/G78 RNA", "experiment": "Isothermal titration calorimetry binding assay, expanded MJDCAA/G78 RNA", "procedure": "To test whether P3V8 specifically targets expanded CAG RNA, ITC experiments were performed using unexpanded CAG RNA (MJDCAG27 RNA), expanded CAG RNA (MJDCAG78 RNA), and expanded CAA/G RNA (MJDCAA/G78 RNA), respectively, to investigate whether the binding of P3V8 is RNA expansion-dependent and sequence-dependent (Table 6).\nas §2"}, "wild type Drosophila": {"test_system": "wild type Drosophila", "experiment": "Egg-to-adult viability test of wild-type flies", "format": "in vivo", "settings": "10 or 50 μM in fly food, 21.5° C.", "procedure": "Eggs laid within 5 hr were collected and cultured in fly food containing 10 or 50 μM of respective peptides at 21.5° C. Viability from egg to adult was calculated as the number of adult flies collected divided by the number of eggs examined. Data are expressed as mean±S.E.M. for 3 independent experiments. NS indicates no significance.\nFlies were raised at 21.5° C. on cornmeal medium supplemented with dry yeast. Fly lines bearing UAS-DsRedCAG0 and UAS-DsRedCAG100 were kind gifts of Professor Nancy Bonini (University of Pennsylvania, USA). The gmr-GAL4 fly line was obtained from Bloomington Drosophila Stock Center. For pseudopupil assay, third instar larvae were fed with various amount of respective peptides dissolved in 2% sucrose solution for 2 hr and then continued to culture in standard fly food at 21.5° C.^38. Pseudopupil assay was performed on 12 day-old adult flies as mentioned previously^39. Images were captured by SPOT Insight CCD camera controlled by the SPOT Advanced software (Diagnostic instruments Inc.). Image processing was performed using the Adobe Photoshop CS software (Adobe). Each experiment was repeated at least 3 times (n=10 fly heads), and consistent results were obtained. […] Viability from egg-to-adult was calculated as the number of adult flies collected divided by the number of eggs examined. […]"}},
  "note": "Entries after “also recorded” stand apart in the source; their conditions may differ. Residues, ends and D or L forms follow the SMILES beside them. *: point of attachment. Palmitoyl = CCCCCCCCCCCCCCCC(=O)*",
  "data": [
    {"compound": "Ac-DGKSKGIAYIEFK-NH2 [P3V8]", "values": [
      {"measurement": "pre-rRNA level", "setting": "pre-rRNA", "value": "fully recovered to the DsRedCAG0 control level"},
      {"measurement": "pre-45s rRNA level", "setting": "pre-45s rRNA", "value": "dose-dependent restoration"},
      {"measurement": "Kd", "setting": "MJDCAG78 RNA", "value": 330, "unit": "nM"},
      {"measurement": "Kd", "setting": "MJDCAA/G78 RNA; ITC, 0.7 mM peptide into 0.5 μM MJDCAA/G78 RNA, mean ± S.E.M.", "value": "2940 ± 960", "unit": "nM"},
      {"measurement": "lower affinity than for expanded CAG RNA", "setting": "MJDCAA/G78 RNA; expanded CAA/G RNA vs expanded MJDCAG78 RNA", "value": "6-9 fold"}
    ]},
    {"compound": "CCCCCCCCCCCCCCCC(=O)N[C@@H](CC(=O)O)C(=O)NCC(=O)N[C@@H](CCCCN)C(=O)N[C@@H](CO)C(=O)N[C@@H](CCCCN)C(=O)NCC(=O)N[C@H](C(=O)N[C@@H](C)C(=O)N[C@@H](Cc1ccc(O)cc1)C(=O)N[C@H](C(=O)N[C@@H](CCC(=O)O)C(=O)N[C@@H](Cc1ccccc1)C(=O)N[C@@H](CCCCN)C(N)=O)[C@@H](C)CC)[C@@H](C)CC", "note": "[L1P3V8] (Palmitoyl-DGKSKGIAYIEFK-NH2)", "values": [
      {"measurement": "egg-to-adult viability", "setting": "wild type Drosophila", "value": "no obvious alteration; also recorded: did not affect the viability"}
    ]}
  ]
}
